Where two headings read alike, the source gives them in different places.
Columns and labels:
[1] = Chemical Stability in aqueous buffer solution at pH 7; format: physicochemical; settings: pH 7, 37° C., low concentration; for half-life: read-out: Chemical Stability at pH 7, half-life (t 1/2) (converted)
Description: The chemical stability of various compounds of the invention has been followed kinetically at low concentration at 37° C. in aqueous buffer solution at different pH values. The results in Table 3 show the half life (t 1/2) at pH 7, that is the time period after which half the amount of the original compound remains unchanged.

[2] = Bioavailability in the Male Rat (AUC method); format: in vivo, Sprague-Dawley; settings: blood, 4 umol/kg, AUC id vs iv, 4 μmol/kg, read-out: Bioavailability measured by the AUL-method, F %, Rat
Description: Bioavailability is assessed by calculating the quotient between the area under plasma concentration (AUC) curve following intraduodenal (id) administration and intravenous (iv) administration from the rat or the dog. Low, therapeutically relevant doses, were used. This method is scientifically recognized as valid for assessing bioavailability (see for instance: M. Rowland and T.N. Tozer, Clinical Pharmacokinetics, 2nd ed., Lea & Febiger, London 1989, p 42). Bioavailability in the Male Rat. Male adult rats of the Sprague-Dawley strain were used. One day, prior to the experiments, all rats were prepared by cannulation of the left carotid artery under anaesthesia. The rats used for the intravenous experiments, were also cannulated in the jugular vein. (Ref. V Popovic and P Popovic, J Appl Physiol 1960;15,727-728). The rats used for the intraduodenal experiments, were also cannulated in the upper part of the duodenum. The cannulas were exteriorized at the nape of the neck. […] The area under the blood concentration vs time curve, AUC, was determined by the linear trapezoidal rule and extrapolated to infinity by dividing the last determined blood concentration by the elimination rate constant in the terminal phase. The systemic bioavailability (F %) following intraduodenal administration was calculated as [formula]

[3] = test system: gastric acid secretion (stimulated with pentagastrin and carbachol); test: Inhibition of Gastric Acid Secretion in the Conscious Male Rat; format: in vivo, Sprague-Dawley; settings: 2 h, acid secretion during second hour after administration
Description: (§1) Since the bioavailability model described above is time and labour intensive, and requires a large number of plasma analyses, also a rough screening model, based on relative potencies to inhibit acid secretion, has been used (see for instance: A. Goth, Medical Pharmacology, 7th ed., C. V. Mosby Company, Saint Louis 1974, p 19). Thus, the ratio (called "Bioavailability" in Table 3) between the ED50 at intravenous administration and the ED50 at intraduodenal administration was calculated.
(§2) The potency for inhibition of acid secretion has been measured in the male rat and the dog, both intravenously and intraduodenally. When it comes to relevance of the animal test data for potency of a given compound in man for the present type of compounds, it is believed that potency in man will correspond to a level somewhere between what is measured in the male rat and what is measured in the dog.
(§3) Inhibition of Gastric Acid Secretion in the Conscious Male Rat.
(§4) Male rats of the Sprague-Dawley strain were used. They were equipped with cannulated fistulae in the stomach (lumen) and the upper part of the duodenum, for collection of gastric secretions and administration of test substances, respectively. A fourteen days recovery period after surgery was allowed before testing commenced.
(§5) Before secretory tests, the animals were deprived of food but not water for 20 h. The stomach was repeatedly washed through the gastric cannula, and 6 ml of Ringer-Glucose given s.c. Acid secretion was stimulated with a infusion during 3.5 h (1.2 ml/h, s.c.) of pentagastrin and carbachol (20 and 110 nmol/kg h, respectively), during which time gastric secretions were collected in 30-min fractions. Test substances or vehicle were given iv or id at 90 min after starting the stimulation, in a volume of 1 ml/kg. Gastric juice samples were titrated to pH 7.0 with NaOH, 0.1 mol/L, and acid output calculated as the product of titrant volume and concentration. Further calculations were based on group mean responses from 4-5 rats. The acid output during the periods after administration of test substances or vehicle were expressed as fractional responses, setting the acid output in the 30-min period preceding administration to 1.0. Percentage inhibition was calculated from the fractional responses elicited by test compound and vehicle. ED50 values were obtained from graphical interpolation on log dose-response curves, or estimated from single-dose experiments assuming a similar slope for all dose-response curves. An estimation of the bioavailability was obtained by calculating the ratio ED50 iv /ED50 id. The results reported are based on gastric acid secretion during the second hour after drug/vehicle administration.

[4] = as above; format: in vivo, Sprague-Dawley; settings: in vivo, ratio ED50 iv/ED50 id, read-out: "Bioavailability" measured by the Rough Screening Model, Rat ED50 iv/ED50 id (%)
Description: as §1, §2, §3, §4, §5

[5] = test system: gastric acid secretion (stimulated with histamine dihydrochloride); test: Inhibition of Gastric Acid Secretion in the Conscious Dog; format: in vivo, Harrier dog, either sex; settings: for ED50: Canis lupus familiaris, dog, acid output 2 h after dosing
Description: as §2
Inhibition of Gastric Acid Secretion and Bioavailability in the Conscious Dog.
Harrier dogs of either sex were used. They were equipped with a duodenal fistula for the administration of test compounds or vehicle and a cannulated ventricular fistula for the collection of gastric secretions.
Before secretory tests the animals were fasted for about 18 h but water was freely allowed. Gastric acid secretion was stimulated by a 4 h infusion of histamine dihydrochloride (12 ml/h) at a dose producing about 80% of the individual maximal secretory response, and gastric juice collected in consecutive 30-min fractions. Test substance or vehicle was given id or iv 1 h after starting the histamine infusion, in a volume of 0.5 ml/kg body weight. The acidity of the gastric juice samples were determined by titration to pH 7.0, and the acid output calculated. The acid output in the collection periods after administration of test substance or vehicle were expressed as fractional responses, setting the acid output in the fraction preceding administration to 1.0. Percentage inhibition was calculated from fractional responses elicited by test compound and vehicle. ED50 --values were obtained by graphical interpolation on log dose-response curves, or estimated from single-dose experiments under the assumption of the same slope of the dose-response curve for all test compounds. All results reported are based on acid output 2 h after dosing.

[6] = route id (intraduodenal), read-out: Inhibition of acid secretion, Rat ED50, id
[7] = route iv, read-out: Inhibition of acid secretion, Rat ED50, iv
[8] = route id (intraduodenal), Ref. value: estimated from one dog (footnote 1), read-out: Inhibition of acid secretion, Dog ED50, id

Row | Structure (SMILES) | Chemical Stability at pH 7, half-life (t 1/2) [1] [h] | half-life [1] [h] | bioavailability [2] [%] | ED50 [3, 6] [µmol/kg] | ED50 [3, 7] [µmol/kg] | bioavailability [4] [%] | ED50 [5, 8] [µmol/kg] | effect on acid secretion at 1.0 μmol/kg ([5]; Dog 1, 1.0 μmol/kg, id) | inhibition of acid secretion at 2.0 μmol/kg ([5]; Dog 2, 2.0 μmol/kg, id) [%] | ED50 ([5]; route iv, Example 1 value: only one dog (footnote 2), read-out: Inhibition of acid secretion, Dog ED50, iv) [µmol/kg]
1 | COc1ccnc(C[S+]([O-])c2nc3cc(F)ccc3[nH]2)c1OC (centres unmarked) [Ref., 5-fluoro-2-[[(3,4-dimethoxy-2-pyridinyl)methyl]sulfinyl]-1H-benzimidazole] | 58 | 58 | 47 | 1.75 | 0.85 | 49 | 1.1 | no effect | 70 | –
2 | COc1ccnc(C[S+]([O-])c2nc3cc(Cl)ccc3[nH]2)c1OC (centres unmarked) [Example 1, 5-chloro-2-[[(3,4-dimethoxy-2-pyridinyl)methyl]sulfinyl]-1H-benzimidazole] | 30 | 30 | 97 | 2.6 | 1.3 | 50 | 1.2 | – | – | 1.75
